The text below walks through data of ChEMBL document CHEMBL1137152, “Copper dipicolinates as peptidomimetic ligands for the Src SH2 domain” (Bioorg Med Chem Lett, 2004).

Structures are written as SMILES.

Usually IC50 stands for the concentration needed to halve the response being measured.

T1 sequence (P12931 2-536 limits assumed): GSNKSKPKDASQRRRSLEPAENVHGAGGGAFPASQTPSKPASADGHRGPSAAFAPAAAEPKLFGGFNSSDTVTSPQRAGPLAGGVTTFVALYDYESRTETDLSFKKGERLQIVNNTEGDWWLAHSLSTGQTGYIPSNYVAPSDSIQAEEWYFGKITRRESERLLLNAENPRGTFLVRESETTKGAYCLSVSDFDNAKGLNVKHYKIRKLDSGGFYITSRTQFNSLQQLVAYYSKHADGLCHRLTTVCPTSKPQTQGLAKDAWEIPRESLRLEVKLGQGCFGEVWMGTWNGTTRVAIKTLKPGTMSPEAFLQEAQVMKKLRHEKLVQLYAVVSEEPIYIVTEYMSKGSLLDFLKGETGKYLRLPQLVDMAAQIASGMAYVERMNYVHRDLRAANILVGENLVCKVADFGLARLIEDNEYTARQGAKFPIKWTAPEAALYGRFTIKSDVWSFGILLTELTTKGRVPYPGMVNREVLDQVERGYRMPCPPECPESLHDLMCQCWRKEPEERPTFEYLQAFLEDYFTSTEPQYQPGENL

The first experiment concerns the target T1, Proto-oncogene tyrosine-protein kinase Src (Homo sapiens, UniProt P12931). In words: Inhibition of fluorescent (GpYEEI) binding to Src protein tyrosine kinase SH2 domain.
`COC(=O)c1cc(OCC(=O)N[C@@H](Cc2ccccc2)C(=O)NCc2cccc(OC)c2)cc(C(=O)OC)n1` gave an IC50 of 663 µM.
Same read-out and setting: as for `COC(=O)c1cc(OCC(=O)N[C@@H](CC(C)C)C(=O)NCc2cccc(OC)c2)cc(C(=O)OC)n1`, the figure is 713 µM.
`COC(=O)c1cc(OCC(=O)N[C@H](C(=O)NCc2ccc3c(c2)OCO3)c2ccccc2)cc(C(=O)OC)n1`: the IC50 was 714 µM.
The same measure, in the same setting: as for `COC(=O)c1cc(OCC(=O)N[C@@H](Cc2ccccc2)C(=O)NCc2ccc3c(c2)OCO3)cc(C(=O)OC)n1`, the figure is 396 µM.
The same measure, in the same setting: as for `COc1ccc(CNC(=O)[C@H](CC(C)C)NC(=O)COc2cc(C(=O)O)cc(C(=O)O)c2)cc1`, the figure is 864 µM.

The target in the next experiment is T1, Proto-oncogene tyrosine-protein kinase Src. Briefly: Inhibition of fluorescent (GpYEEI) binding to Src protein tyrosine kinase SH2 domain; NA = No significant inhibition.
Consider `COC(=O)c1cc(OCC(=O)N[C@H](C(=O)NCc2cccc(OC)c2)c2ccccc2)cc(C(=O)OC)n1`, for which the IC50 result is “Not Active”.
